Reference: US20170360780A1, “PHARMACEUTICAL COMPOSITION COMPRISING BICYCLIC NITROGEN-CONTAINING AROMATIC HETEROCYCLIC AMIDE COMPOUND AS ACTIVE INGREDIENT” (Astellas Pharma Inc., priority 2014, published 2017)

Legend:
KMS-12-BM cells [1] = assay: Test Example 6: combination use with lenalidomide, nude mice bearing KMS-12-BM tumors; type: in vivo, human; settings: for Rate of tumor regression / Inhibition rate of tumor growth: KMS-12-BM, nude mice, 14 days, next day of final administration; for Anti-tumor effect of combination use with lenalidomide versus single administration: mice bearing tumors of human myeloma, combination use of lenalidomide and compound
Experimental: KMS-12-BM cells derived from human myeloma were prepared at 5×10^7 cells/mL of a mixed solution of PBS and Matrigel (registered trademark) in 1:1 ratio, and 0.1 mL was implanted to CAnN.Cg-Foxn1^nu/CrlCrlj mice (4- to 5-week-old male nude mice, Charles River Laboratories Japan, Inc.) under the skin on the back (5×10^6 cells/head). Dividing into groups by the tumor volume was performed when tumor cells were engrafted under the skin and the average tumor volume exceeded approximately 200 mm^3. […] The test compound dissolved in 6% cyclodextrin aqueous solution was orally administered by the dosage of 8 mg/kg or 1 mg/kg once a day for 14 days continuously. Lenalidomide (MedChemExpress.) was suspended in 6% cyclodextrin aqueous solution and was orally administered by the dosage of 100 mg/kg once a day for 14 days continuously. The inhibition rate of tumor growth and the rate of tumor regression in each group on the next day of the final administration were calculated by using the formula below.
(§1) [Tumor volume (mm^3)]=[major axis of tumor (mm)]×[minor axis of tumor (mm)]^2×0.5
(§2) Inhibition rate of tumor growth (%)=(1−average of tumor volume growth in each group/average of tumor volume growth in control group)×100
Rate of tumor regression (%)=(1−average tumor volume in each group on measuring day/average tumor volume in each group when starting administration)×100
The inhibition rate of tumor growth and the rate of tumor regression in each group on the next day of the final administration is shown in Table 6.

RPMI 8226 cells [2] = assay: Test Example 4: anti-tumor test on SCID mice bearing RPMI 8226 human myeloma tumors; type: in vivo; settings: RPMI 8226, SCID mice, 18 days, next day of final administration
Description: (§3) KMS-12-BM cells and RPMI 8226 cells which are derived from human myeloma were respectively purchased from JCRB cell bank (National Institutes of Biochemical Innovation, Health and Nutrition), and ATCC. KMS-12-BM cells were implanted to CAnN.Cg-Foxn1^nu/CrlCrlj mice (4- to 5-week-old male nude mice, Charles River Laboratories Japan, Inc.), and RPMI 8226 cells to CB17/Icr-Prkdc^scid/CrlCrlj mice (4- to 5-week-old male SCID mice, Charles River Laboratories Japan, Inc.), respectively. Each of tumor cells were prepared at 5×10^7 cells/mL of a mixed solution of PBS and Matrigel (registered trademark) in 1:1 ratio, and 0.1 mL was implanted to the mice under the skin on the back (5×10^6 cells/head). Dividing into groups by the tumor volume was performed when tumor cells were engrafted under the skin and the average tumor volume exceeded approximately 150 mm^3 (5 mice for each group). The test compound dissolved in 6% cyclodextrin aqueous solution (Sigma-Aldrich Co.) was orally administered by the dosage of 8 mg/kg or 1 mg/kg once a day. 6% Cyclodextrin aqueous solution was also orally administered for the solvent group (control group) once a day. Oral administration was performed continuously for 17 days for KMS-12-BM cells, and 18 days for RPMI 8226 cells. The inhibition rate of tumor growth and the rate of tumor regression on the next day of the final administration were calculated by using the formula below.
as §1, §2
(§4) Rate of tumor regression (%)=(1−average tumor volume in each group on measuring day/average tumor volume in each group when dividing groups)×100

KMS-12-BM cells [3] = assay: Test Example 4: anti-tumor test on nude mice bearing KMS-12-BM human myeloma tumors; type: in vivo; settings: 17 days, next day of final administration
Description: as §3, §1, §2, §4

KMS-12-BM cells [4] = assay: Test Example 3: anti-tumor test on nude mice bearing KMS-12-BM human myeloma tumors; type: in vivo; settings: 8 mg/kg oral once a day, 21 days, next day of final administration
Experimental: (§5) KMS-12-BM cells (purchased) or OPM-2 cells (purchased) derived from human myeloma were prepared at 5×10^7 cells/mL of a mixed solution of PBS and Matrigel (registered trademark) in 1:1 ratio, and 0.1 mL was implanted to CAnN.Cg-Foxn1^nu/CrlCrlj mice (4-week-old male nude mice, Charles River Laboratories Japan, Inc.) under the skin on the back (5×10^6 cells/head). Dividing into groups by the tumor volume was performed when tumor cells were engrafted and the average tumor volume exceeded approximately 300 mm^3 (5 mice for each group). The test compound dissolved in 6% cyclodextrin aqueous solution (Sigma-Aldrich Co.) was orally administered by the dosage of 8 mg/kg once a day for 21 days in the test using KMS-12-BM cells, and for 7 days in the test using OPM-2 cells, respectively. 6% Cyclodextrin aqueous solution was orally administered for a solvent group (control group) once a day.
(§6) The body weight and the tumor diameter were measured twice a week, and the anti-tumor effect and the effect on the body weight were examined. For calculation of the tumor volume, the formula below was used.
as §1
(§7) The inhibition rate of tumor growth and the rate of tumor regression were calculated from the average value of the tumor volume according to the formula below. […]

KMS-12-BM cells [5] = assay: Test Example 5: combination use with lenalidomide, nude mice bearing KMS-12-BM tumors; type: in vivo, human; settings: 27 days, next day of final administration
Experimental: KMS-12-BM cells derived from human myeloma were prepared at 2.8×10^7 cells/mL of a mixed solution of PBS and Matrigel (registered trademark) in 1:1 ratio, and 0.1 mL was implanted to CAnN.Cg-Foxn1^nu/CrlCrlj mice (4-week-old male nude mice, Charles River Laboratories Japan, Inc.) under the skin on the back (2.8×10^6 cells/head). Dividing into groups by the tumor volume was performed when tumor cells were engrafted and the average tumor volume exceeded approximately 200 mm^3, and 5 mice were set for each group. The test compound dissolved in 6% cyclodextrin aqueous solution was orally administered by the dosage of 2 mg/kg once a day for 27 days. Lenalidomide (MedChemExpress.) was suspended in 6% cyclodextrin aqueous solution and was orally administered by the dosage of 100 mg/kg once a day for 27 days. The dosage of 2 mg/kg of the test compound and 100 mg/kg of lenalidomide were orally administered for a combination administered group once a day, respectively. 6% Cyclodextrin aqueous solution was orally administered for the solvent group (control group) once a day. The body weight and the tumor diameter were measured twice a week, and the anti-tumor effect and the effect on the body weight were examined. For calculation of the tumor volume, the formula below was used.
as §1
The inhibition rate of tumor growth and the rate of tumor regression were calculated from the average value of the average tumor volume according to the formula below.
as §2, §4

RPMI 8226 cells [6] = assay: Test Example 3: anti-tumor test on SCID mice bearing RPMI 8226 human myeloma tumors; type: in vivo; settings: RPMI 8226, SCID mice, 8 mg/kg oral once a day, 21 days; next day of final administration
Experimental: RPMI 8226 cells (purchased) derived from human myeloma were prepared at 5×10^7 cells/mL of a mixed solution of PBS and Matrigel (registered trademark) in 1:1 ratio, and 0.1 mL was implanted to CB17/Icr-Prkdc^scid/CrlCrlj mice (5-week-old male SCID mice, Charles River Laboratories Japan, Inc.) under the skin on the back (5×10^6 cells/head). Dividing into groups by the tumor volume was performed when tumor cells were engrafted and the average tumor volume exceeded approximately 150 mm^3 (5 mice for each group). The test compound dissolved in 6% cyclodextrin aqueous solution was orally administered by the dosage of 8 mg/kg once a day for 21 days continuously. 6% Cyclodextrin aqueous solution was orally administered for a solvent group (control group) once a day.
as §6, §1
The inhibition rate of tumor growth and the rate of tumor regression were calculated from the average value of the tumor volume according to the formula below.
Inhibition rate of tumor growth (%)=(1−average of tumor volume growth in each group/average of tumor volume growth in control group)×100 […]

OPM-2 cells = assay: Test Example 3: anti-tumor test on nude mice bearing OPM-2 human myeloma tumors; type: in vivo; settings: OPM-2, nude mice, 8 mg/kg oral once a day, 7 days; next day of final administration
Experimental: as §5, §6, §1, §7

[7] = test compound 1 mg/kg + lenalidomide 100 mg/kg oral once a day
[8] = test compound 1 mg/kg + solvent, oral once a day
[9] = test compound 8 mg/kg + lenalidomide 100 mg/kg oral once a day
[10] = test compound 8 mg/kg + solvent, oral once a day

CCOc1cnc(CN2CCC(c3ccc4cc(C(=O)N5CCN(Cc6ccc(C#N)cc6)CC5)n(C)c4c3)CC2)cn1 [Compound C1, 4-({4-[(6-{1-[(5-ethoxypyrazin-2-yl)methyl]piperidin-4-yl}-1-methyl-1H-indol-2-yl)carbonyl]piperazin-1-yl}methyl)benzonitrile]
Rate of tumor regression (KMS-12-BM cells [1]; [7]): 64% regression | Rate of tumor regression (KMS-12-BM cells [1]; [8]): 40% regression | Rate of tumor regression (RPMI 8226 cells [2]; 1 mg/kg oral once a day): 25% regression | Rate of tumor regression (KMS-12-BM cells [3]; 1 mg/kg oral once a day): 68% regression

COc1cnc(CN2CCC(c3ccc4c(c3)cc(C(=O)N3CCN(Cc5ccc(C#N)cc5)CC3)n4C)CC2)cn1 [Compound D1, 4-({4-[(5-{1-[(5-methoxypyrazin-2-yl)methyl]piperidin-4-yl}-1-methyl-1H-indol-2-yl)carbonyl]piperazin-1-yl}methyl)benzonitrile]
Inhibition rate of tumor growth (KMS-12-BM cells [1]; [7]): 74% inhibition | Inhibition rate of tumor growth (KMS-12-BM cells [1]; [8]): 61% inhibition | Inhibition rate of tumor growth (RPMI 8226 cells [2]; 1 mg/kg oral once a day): 75% inhibition | Inhibition rate of tumor growth (KMS-12-BM cells [3]; 1 mg/kg oral once a day): 71% inhibition

COc1cnc(CN2CCC(c3ccc4[nH]c(C(=O)N5CCN(Cc6ccc(C(F)(F)F)cc6)CC5)nc4c3)CC2)cn1 [Compound B, (5-{1-[(5-methoxypyrazin-2-yl)methyl]piperidin-4-yl}-1H-benzimidazol-2-yl){4-[4-(trifluoromethyl)benzyl]piperazin-1-yl}methanone]
Anti-tumor effect of combination use with lenalidomide versus single administration (KMS-12-BM cells [1]): stronger anti-tumor effect than each single administration thereof

COc1ccc(CN2CCC(c3ccc4[nH]c(C(=O)N5CCN(Cc6ccc(C(F)(F)F)cc6)CC5)nc4c3)CC2)cn1 [Compound A, (5-{1-[(6-methoxypyridin-3-yl)methyl]piperidin-4-yl}-1H-benzimidazol-2-yl) {4-[4-(trifluoromethyl)benzyl]piperazin-1-yl}methanone]
Anti-tumor effect of combination use with lenalidomide versus single administration (KMS-12-BM cells [1]): stronger anti-tumor effect than each single administration thereof

COc1ccc(CN2CCC(c3ccc4[nH]c(C(=O)N5CCN(Cc6ccc(C(F)(F)F)cc6)CC5)nc4c3)CC2)cn1 [Compound A1, (5-{1-[(6-methoxypyridin-3-yl)methyl]piperidin-4-yl}-1H-benzimidazol-2-yl){4-[4-(trifluoromethyl)benzyl]piperazin-1-yl}methanone]
Rate of tumor regression (KMS-12-BM cells [4]): 100% regression | Rate of tumor regression (KMS-12-BM cells [5]; test compound 2 mg/kg + lenalidomide 100 mg/kg oral once a day): 100% regression | Rate of tumor regression (KMS-12-BM cells [5]; test compound alone 2 mg/kg oral once a day): 24% regression | Rate of tumor regression (KMS-12-BM cells [1]; [9]): 39% regression | Inhibition rate of tumor growth (KMS-12-BM cells [1]; [10]): 100% inhibition | Inhibition rate of tumor growth (RPMI 8226 cells [6]): 97% inhibition | Rate of tumor regression (OPM-2 cells): 17% regression | Inhibition rate of tumor growth (RPMI 8226 cells [2]; 8 mg/kg oral once a day): 99% inhibition | Inhibition rate of tumor growth (KMS-12-BM cells [3]; 8 mg/kg oral once a day): 99% inhibition

Nc1cccc2c1CN(C1CCC(=O)NC1=O)C2=O (stereo not drawn) [Lenalidomide, lenalidomide, reference compound]
Inhibition rate of tumor growth (KMS-12-BM cells [5]; lenalidomide alone 100 mg/kg oral once a day): 53% inhibition | Inhibition rate of tumor growth (KMS-12-BM cells [1]; solvent + lenalidomide 100 mg/kg oral once a day): 21% inhibition

CCOc1cnc(CN2CCC(c3ccc4cc(C(=O)N5CCN(Cc6ccc(C#N)cc6)CC5)n(C)c4c3)CC2)cn1 [Compound C, 4-({4-[(6-{1-[(5-ethoxypyrazin-2-yl)methyl]piperidin-4-yl}-1-methyl-1H-indol-2-yl)carbonyl]piperazin-1-yl}methyl)benzonitrile]
Anti-tumor effect of combination use with lenalidomide versus single administration (KMS-12-BM cells [1]): stronger anti-tumor effect than each single administration thereof

COc1cnc(CN2CCC(c3ccc4[nH]c(C(=O)N5CCN(Cc6ccc(C(F)(F)F)cc6)CC5)nc4c3)CC2)cn1 [Compound B1, (5-{1-[(5-methoxypyrazin-2-yl)methyl]piperidin-4-yl}-1H-benzimidazol-2-yl){4-[4-(trifluoromethyl)benzyl]piperazin-1-yl}methanone]
Rate of tumor regression (KMS-12-BM cells [1]; [9]): 42% regression | Rate of tumor regression (KMS-12-BM cells [1]; [10]): 20% regression | Rate of tumor regression (RPMI 8226 cells [2]; 8 mg/kg oral once a day): 4% regression | Rate of tumor regression (KMS-12-BM cells [3]; 8 mg/kg oral once a day): 6% regression

COc1cnc(CN2CCC(c3ccc4c(c3)cc(C(=O)N3CCN(Cc5ccc(C#N)cc5)CC3)n4C)CC2)cn1 [Compound D, 4-({4-[(5-{1-[(5-methoxypyrazin-2-yl)methyl]piperidin-4-yl}-1-methyl-1H-indol-2-yl)carbonyl]piperazin-1-yl}methyl)benzonitrile]
Anti-tumor effect of combination use with lenalidomide versus single administration (KMS-12-BM cells [1]): stronger anti-tumor effect than each single administration thereof
